# Target: T1, CMH-1 (Homo sapiens, UniProt P55210)
# T1 construct: we expressed an N-terminal (His)6-tagged CMH-1(Ala24-Gln303) in E. coli; made in house; host or cells: E. coli BL21(DE3), pET-15b
# T1 sequence (P55210 24-303): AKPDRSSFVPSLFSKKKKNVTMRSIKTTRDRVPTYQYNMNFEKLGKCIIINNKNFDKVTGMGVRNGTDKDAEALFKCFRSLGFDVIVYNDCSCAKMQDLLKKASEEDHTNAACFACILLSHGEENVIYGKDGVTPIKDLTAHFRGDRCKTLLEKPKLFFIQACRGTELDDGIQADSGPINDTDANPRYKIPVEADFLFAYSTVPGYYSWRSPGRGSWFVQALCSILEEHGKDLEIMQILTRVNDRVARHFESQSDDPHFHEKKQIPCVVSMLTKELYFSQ
# T1 sequence (P55210 199-303): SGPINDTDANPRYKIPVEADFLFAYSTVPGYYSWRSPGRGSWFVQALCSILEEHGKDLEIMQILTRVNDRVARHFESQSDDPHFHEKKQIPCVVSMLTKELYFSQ
# Assay: Inhibition of in vitro cleavage of 35S-labelled PARP by CMH-1 (SDS-PAGE and fluorography)
# Format: biochemical
# Conditions: 35S-labelled PARP as substrate, Fig. 4, panel B
# Protocol: In order to determine the activity of purified CMH-1, we determined whether the protein could cleave ^35[S]-labeled pro-IL-1b and PARP and compared its cleavage activity to purified ICE. We prepared ^35[S]-labeled PARP and IL-1b precursor (pro-IL-1b) by in vitro transcription and translation. Cleavage experiments were carried out as described previously [Y. Gu et al., J. Biol. Chem. (1995)]. Cleavage products were analyzed by SDS-PAGE and fluorography as described in that reference.
row,Compound,inhibition of the cleavage activity of CMH-1
1,NC(=O)CI [iodoacetamide],inhibited
2,CCN1C(=O)C=CC1=O [N-ethylmaleimide],inhibited
3,YVAD-CHO,not
